The supplement of paper PMC10307832

What was measured:
Assay in all cases: relative viability (nuclei count vs DMSO), 5 days (fraction); higher = more cells survive
NCI-H2170 = test system: NCI-H2170
In short: (§1)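 Lung cancer cell lines in 1536-well plates got either a single drug or a fixed anchor-drug dose together with five library-drug doses (not always all listed) in √10 steps, by pin tool, on the day after seeding. Nuclei were counted after 5 days, and relative viability is the treated-to-vehicle ratio of nuclei counts. Values are medians of duplicate plates.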

PC-3 [JPC-3] = test system: PC-3 [JPC-3]
In short: as §1

SK-MES-1 = test system: SK-MES-1
In short: as §1

H3255 = test system: H3255
In short: as §1

NCI-H1666 = test system: NCI-H1666
In short: as §1

EMC-BAC-2 = test system: EMC-BAC-2
In short: as §1

NCI-H1563 = test system: NCI-H1563
In short: as §1

NCI-H1975 = test system: NCI-H1975
In short: as §1

HCC-366 = test system: HCC-366
In short: as §1

NCI-H520 = test system: NCI-H520
In short: as §1

NCI-H596 = test system: NCI-H596
In short: as §1

LOU-NH91 = test system: LOU-NH91
In short: as §1

COR-L 105 = test system: COR-L 105
In short: as §1

EKVX = test system: EKVX
In short: as §1

NCI-H23 = test system: NCI-H23
In short: as §1

A-427 = test system: A-427
In short: as §1

NCI-H441 = test system: NCI-H441
In short: as §1

NCI-H1755 = test system: NCI-H1755
In short: as §1

LK-2 = test system: LK-2
In short: as §1

NCI-H1734 = test system: NCI-H1734
In short: as §1

Cc1sc2c(c1C)C(c1ccc(Cl)cc1)=N[C@@H](CC(=O)OC(C)(C)C)c1nnc(C)n1-2 [JQ1] + Cc1nc(NC(=O)N2CCC[C@H]2C(N)=O)sc1-c1ccnc(C(C)(C)C(F)(F)F)c1 [Alpelisib] (partner 2 µM)
relative viability (NCI-H2170; first compound 0.04 µM): 0.811
relative viability (NCI-H2170; first compound 0.1265 µM): 0.801
relative viability (NCI-H2170; first compound 0.4 µM): 0.689
relative viability (NCI-H2170; first compound 1.265 µM): 0.403
relative viability (NCI-H2170; first compound 4 µM): 0.34
relative viability (PC-3 [JPC-3]; first compound 0.04 µM): 1.06
relative viability (PC-3 [JPC-3]; first compound 0.1265 µM): 1.03
relative viability (PC-3 [JPC-3]; first compound 0.4 µM): 1.09
relative viability (PC-3 [JPC-3]; first compound 1.265 µM): 0.775
relative viability (PC-3 [JPC-3]; first compound 4 µM): 0.608
relative viability (SK-MES-1; first compound 0.04 µM): 0.769
relative viability (SK-MES-1; first compound 0.1265 µM): 0.68
relative viability (SK-MES-1; first compound 0.4 µM): 0.733
relative viability (SK-MES-1; first compound 1.265 µM): 0.456
relative viability (SK-MES-1; first compound 4 µM): 0.27
relative viability (H3255; first compound 0.04 µM): 0.691
relative viability (H3255; first compound 0.1265 µM): 0.62
relative viability (H3255; first compound 0.4 µM): 0.619
relative viability (H3255; first compound 1.265 µM): 0.34
relative viability (H3255; first compound 4 µM): 0.296
relative viability (NCI-H1666; first compound 0.04 µM): 0.802
relative viability (NCI-H1666; first compound 0.1265 µM): 1.04
relative viability (NCI-H1666; first compound 0.4 µM): 0.696
relative viability (NCI-H1666; first compound 1.265 µM): 0.507
relative viability (NCI-H1666; first compound 4 µM): 0.444
relative viability (EMC-BAC-2; first compound 0.04 µM): 0.663
relative viability (EMC-BAC-2; first compound 0.1265 µM): 0.749
relative viability (EMC-BAC-2; first compound 0.4 µM): 0.576
relative viability (EMC-BAC-2; first compound 1.265 µM): 0.439
relative viability (EMC-BAC-2; first compound 4 µM): 0.386
relative viability (NCI-H1563; first compound 0.04 µM): 0.846
relative viability (NCI-H1563; first compound 0.1265 µM): 0.854
relative viability (NCI-H1563; first compound 0.4 µM): 0.932
relative viability (NCI-H1563; first compound 1.265 µM): 0.573
relative viability (NCI-H1563; first compound 4 µM): 0.613
relative viability (NCI-H1975; first compound 0.04 µM): 0.662
relative viability (NCI-H1975; first compound 0.1265 µM): 0.424
relative viability (NCI-H1975; first compound 0.4 µM): 0.578
relative viability (NCI-H1975; first compound 1.265 µM): 0.348
relative viability (NCI-H1975; first compound 4 µM): 0.335
relative viability (HCC-366; first compound 0.04 µM): 0.405
relative viability (HCC-366; first compound 0.4 µM): 0.404
relative viability (HCC-366; first compound 1.265 µM): 0.233
relative viability (HCC-366; first compound 4 µM): 0.215
relative viability (NCI-H520; first compound 0.04 µM): 0.798
relative viability (NCI-H520; first compound 0.1265 µM): 0.934
relative viability (NCI-H520; first compound 0.4 µM): 0.667
relative viability (NCI-H520; first compound 1.265 µM): 0.38
relative viability (NCI-H520; first compound 4 µM): 0.268
relative viability (NCI-H596; first compound 0.04 µM): 0.481
relative viability (NCI-H596; first compound 0.1265 µM): 0.499
relative viability (NCI-H596; first compound 0.4 µM): 0.437
relative viability (NCI-H596; first compound 1.265 µM): 0.41
relative viability (NCI-H596; first compound 4 µM): 0.343
relative viability (LOU-NH91; first compound 0.04 µM): 0.683
relative viability (LOU-NH91; first compound 0.1265 µM): 0.664
relative viability (LOU-NH91; first compound 0.4 µM): 0.458
relative viability (LOU-NH91; first compound 1.265 µM): 0.491
relative viability (LOU-NH91; first compound 4 µM): 0.473
relative viability (COR-L 105; first compound 0.04 µM): 0.799
relative viability (COR-L 105; first compound 0.1265 µM): 0.642
relative viability (COR-L 105; first compound 0.4 µM): 0.421
relative viability (COR-L 105; first compound 1.265 µM): 0.252
relative viability (COR-L 105; first compound 4 µM): 0.255
relative viability (EKVX; first compound 0.04 µM): 0.834
relative viability (EKVX; first compound 0.1265 µM): 0.8
relative viability (EKVX; first compound 0.4 µM): 0.688
relative viability (EKVX; first compound 1.265 µM): 0.729
relative viability (EKVX; first compound 4 µM): 0.664
relative viability (NCI-H23; first compound 0.04 µM): 0.62
relative viability (NCI-H23; first compound 0.1265 µM): 0.726
relative viability (NCI-H23; first compound 0.4 µM): 0.454
relative viability (NCI-H23; first compound 1.265 µM): 0.292
relative viability (NCI-H23; first compound 4 µM): 0.297
relative viability (A-427; first compound 0.04 µM): 1.15
relative viability (A-427; first compound 0.1265 µM): 1.05
relative viability (A-427; first compound 0.4 µM): 1.11
relative viability (A-427; first compound 1.265 µM): 0.967
relative viability (A-427; first compound 4 µM): 0.731
relative viability (NCI-H441; first compound 0.04 µM): 0.772
relative viability (NCI-H441; first compound 0.1265 µM): 0.958
relative viability (NCI-H441; first compound 0.4 µM): 0.692
relative viability (NCI-H441; first compound 1.265 µM): 0.294
relative viability (NCI-H441; first compound 4 µM): 0.444
relative viability (NCI-H1755; first compound 0.04 µM): 0.916
relative viability (NCI-H1755; first compound 0.1265 µM): 0.918
relative viability (NCI-H1755; first compound 0.4 µM): 1.01
relative viability (NCI-H1755; first compound 1.265 µM): 0.623
relative viability (NCI-H1755; first compound 4 µM): 0.533
relative viability (LK-2; first compound 0.04 µM): 1.05
relative viability (LK-2; first compound 0.1265 µM): 1.06
relative viability (LK-2; first compound 0.4 µM): 0.55
relative viability (LK-2; first compound 1.265 µM): 0.237
relative viability (LK-2; first compound 4 µM): 0.16
relative viability (NCI-H1734; first compound 0.04 µM): 0.709
relative viability (NCI-H1734; first compound 0.1265 µM): 0.645
relative viability (NCI-H1734; first compound 0.4 µM): 0.637
relative viability (NCI-H1734; first compound 1.265 µM): 0.544
relative viability (NCI-H1734; first compound 4 µM): 0.421
